This passage reports EC50 results from patent US12486269B2 (Aconcagua Bio, Inc., priority 2024, dated 2025).

One may read the EC50 as the midpoint of the concentration-response curve.

The target in test [1] is T1, COS-7/AMY3 (human calcitonin receptor (CTR) and RAMP3) (Homo sapiens, UniProt O60896+P30988).
T1 construct: expressed in transfected cells; host or cells: COS-7
The test can be described thus: Amylin Receptor cAMP Assay II. It is filed as cell-based. The conditions noted are these: values marked **: Amylin Receptor cAMP Assay II; COS-7/AMY3 cells, cAMP dynamic 2 kit, 30 min; read-out: Amylin Receptor cAMP Stimulation Activity: EC50. The procedure, abridged: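 COS-7 cells stably co-expressing human CTR and RAMP3 (AMY3), 2000 cells/well in HBSS with 20 mM HEPES, 0.5 mM IBMX, 0.1% casein, stimulated with compound for 30 min at 37 °C. cAMP measured by HTRF (665/615 nm), activity normalized between vehicle and maximal control.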

Test [2] deals with T2, human calcitonin receptor (CTR) (Homo sapiens, UniProt P30988).
T2 construct: expressed in transfected cells; host or cells: COS-7 (COS7-human CTR Clone #2)
T2 sequence (P30988 25-474): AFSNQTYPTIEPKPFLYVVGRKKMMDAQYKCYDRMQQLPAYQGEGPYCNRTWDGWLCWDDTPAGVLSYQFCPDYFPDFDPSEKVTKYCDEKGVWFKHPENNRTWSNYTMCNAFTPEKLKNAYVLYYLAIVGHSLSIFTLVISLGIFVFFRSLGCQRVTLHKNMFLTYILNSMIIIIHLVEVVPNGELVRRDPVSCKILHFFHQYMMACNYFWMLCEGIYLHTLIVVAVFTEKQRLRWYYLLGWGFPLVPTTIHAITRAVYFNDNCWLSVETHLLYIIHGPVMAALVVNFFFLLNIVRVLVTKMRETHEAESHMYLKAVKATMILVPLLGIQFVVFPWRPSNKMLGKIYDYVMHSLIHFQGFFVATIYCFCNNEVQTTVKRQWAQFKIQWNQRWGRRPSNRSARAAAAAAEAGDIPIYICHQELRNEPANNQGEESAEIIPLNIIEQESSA
Description: Calcitonin Receptor (CTR) cAMP Assay. It is filed as cell-based. The conditions noted are these: COS7-human CTR Clone #2 stable cell line, cAMP dynamic 2 kit, 30 min; read-out: Calcitonin Receptor cAMP Stimulation Activity: EC50. The procedure, abridged:
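COS-7 cells stably expressing human CTR (2000 cells/well) were incubated 30 min at 37 °C with 4-fold serially diluted compound in HBSS/20 mM HEPES/0.5 mM IBMX/0.1% casein. cAMP was detected by HTRF (665/615 nm) after 1 h at RT. % activity was normalised to vehicle and positive controls.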

T1 sequence (O60896 24-148, one chain of several): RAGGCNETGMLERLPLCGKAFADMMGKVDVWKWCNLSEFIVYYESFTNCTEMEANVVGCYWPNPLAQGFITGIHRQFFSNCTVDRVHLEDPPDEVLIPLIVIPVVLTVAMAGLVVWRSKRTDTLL

Turning to `COc1cccc2c1CC[C@H]2Nc1nc(C(F)F)cc2cc(-c3c4c(nc(CCc5ccc(F)cc5)c3-c3n[nH]c(=O)o3)[C@@H]3CCCN3C4=O)sc12` [Compound 188, 5-((S)-4-(5-(difluoromethyl)-7-(((R)-4-methoxy-2,3-dihydro-1H-inden-1-yl)amino)thieno[2,3-c]pyridin-2-yl)-2-(4-fluorophenethyl)-5-oxo-7,8,9,9a-tetrahydro-5H-pyrido[2,3-a]pyrrolizin-3-yl)-1,3,4-oxadiazol-2(3H)-one], the EC50 in test [1] is 6.57 nM; in test [2], 0.223 nM.
In the same order, the values of `COc1c(F)ccc2c1CC[C@H]2Nc1nccc2cc(-c3c4c(nc(CCc5ccc(F)cc5)c3-c3n[nH]c(=O)o3)C35CC(CN3C4=O)C5)sc12` [Compound 189, (R)-5-(4-(7-((5-fluoro-4-methoxy-2,3-dihydro-1H-inden-1-yl)amino)thieno[2,3-c]pyridin-2-yl)-2-(4-fluorophenethyl)-5-oxo-8,9-dihydro-5H,7H-8,9a-methanopyrido[2,3-a]pyrrolizin-3-yl)-1,3,4-oxadiazol-2(3H)-one] are 0.213 nM and 0.0262 nM.
For `O=C1c2c(nc(CCc3ccc(F)cc3)c(-c3n[nH]c(=O)o3)c2-c2cc3ccnc(N[C@@H]4CCc5cc(F)c(F)cc54)c3s2)C23CC(CN12)C3` [Compound 190, (R)-5-(4-(7-((5,6-difluoro-2,3-dihydro-1H-inden-1-yl)amino)thieno[2,3-c]pyridin-2-yl)-2-(4-fluorophenethyl)-5-oxo-8,9-dihydro-5H,7H-8,9a-methanopyrido[2,3-a]pyrrolizin-3-yl)-1,3,4-oxadiazol-2(3H)-one] the same measures were 0.184 nM and 0.00786 nM.
In the same order, the values of `COc1c(F)c(F)cc2c1CC[C@H]2Nc1nccc2cc(-c3c4c(nc(CCc5ccc(F)cc5)c3-c3n[nH]c(=O)o3)[C@@H]3CCCN3C4=O)sc12` [Compound 192, 5-((S)-4-(7-(((R)-5,6-difluoro-4-methoxy-2,3-dihydro-1H-inden-1-yl)amino)thieno[2,3-c]pyridin-2-yl)-2-(4-fluorophenethyl)-5-oxo-7,8,9,9a-tetrahydro-5H-pyrido[2,3-a]pyrrolizin-3-yl)-1,3,4-oxadiazol-2(3H)-one] are 0.8 nM and 0.00532 nM.
For the compound `COc1c(F)ccc2c1CC[C@H]2Nc1nc(C)cc2cc(-c3c4c(nc(CCc5ccc(F)cc5)c3-c3n[nH]c(=O)o3)C35CC(CN3C4=O)C5)sc12` [Compound 193, (R)-5-(4-(7-((5-fluoro-4-methoxy-2,3-dihydro-1H-inden-1-yl)amino)-5-methylthieno[2,3-c]pyridin-2-yl)-2-(4-fluorophenethyl)-5-oxo-8,9-dihydro-5H,7H-8,9a-methanopyrido[2,3-a]pyrrolizin-3-yl)-1,3,4-oxadiazol-2(3H)-one], the EC50 in test [1] turned out to be 0.226 nM; in test [2], 0.00749 nM.
For `COc1cccc2c1CC(F)(F)[C@H]2Nc1nccc2cc(-c3c4c(nc(CCc5ccc(F)cc5)c3-c3n[nH]c(=O)o3)[C@@H]3CCCN3C4=O)sc12` [Compound 194, 5-((S)-4-(7-(((S)-2,2-difluoro-4-methoxy-2,3-dihydro-1H-inden-1-yl)amino)thieno[2,3-c]pyridin-2-yl)-2-(4-fluorophenethyl)-5-oxo-7,8,9,9a-tetrahydro-5H-pyrido[2,3-a]pyrrolizin-3-yl)-1,3,4-oxadiazol-2(3H)-one] the same measures were 1.96 nM and 0.229 nM.
As for `COc1c(F)c(F)cc2c1CC[C@H]2Nc1nc(C)cc2cc(-c3c4c(nc(CCc5ccc(F)cc5)c3-c3n[nH]c(=O)o3)C35CC(CN3C4=O)C5)sc12` [Compound 195, (R)-5-(4-(7-((5,6-difluoro-4-methoxy-2,3-dihydro-1H-inden-1-yl)amino)-5-methylthieno[2,3-c]pyridin-2-yl)-2-(4-fluorophenethyl)-5-oxo-8,9-dihydro-5H,7H-8,9a-methanopyrido[2,3-a]pyrrolizin-3-yl)-1,3,4-oxadiazol-2(3H)-one], the results for the EC50 in test [1] and in test [2] were 0.0995 nM and 0.00616 nM, respectively.
In the same order, the values of `COc1c(F)ccc2c1C[C@@H](F)[C@H]2Nc1nc(C)cc2cc(-c3c4c(nc(CCc5ccc(F)cc5)c3-c3n[nH]c(=O)o3)C35CC(CN3C4=O)C5)sc12` [Compound 196, 5-(4-(7-(((1S,2R)-2,5-difluoro-4-methoxy-2,3-dihydro-1H-inden-1-yl)amino)-5-methylthieno[2,3-c]pyridin-2-yl)-2-(4-fluorophenethyl)-5-oxo-8,9-dihydro-5H,7H-8,9a-methanopyrido[2,3-a]pyrrolizin-3-yl)-1,3,4-oxadiazol-2(3H)-one] are 0.196 nM and 0.00979 nM.
In the same order, the values of `O=C1c2c(nc(CCC3CCOCC3)c(-c3cc(=O)[nH]o3)c2-c2cc3ccnc(N[C@@H]4CCc5ncccc54)c3s2)[C@@H]2CCCN12` [Compound 197, 5-((S)-4-(7-(((R)-6,7-dihydro-5H-cyclopenta[b]pyridin-5-yl)amino)thieno[2,3-c]pyridin-2-yl)-5-oxo-2-(2-(tetrahydro-2H-pyran-4-yl)ethyl)-7,8,9,9a-tetrahydro-5H-pyrido[2,3-a]pyrrolizin-3-yl)isoxazol-3(2H)-one] are 1790 nM and 58.9 nM.
In the same order, the values of `O=c1cc(-c2c(CCC3CCOCC3)nc3c(c2-c2cc4ccnc(N[C@@H]5CCc6ncccc65)c4s2)S(=O)(=O)N2CCC[C@@H]32)o[nH]1` [Compound 198, 5-[(2S)-9-[7-[[(5R)-6,7-dihydro-5H-cyclopenta[b]pyridin-5-yl]amino]thieno[2,3-c]pyridin-2-yl]-7,7-dioxo-11-(2-tetrahydropyran-4-ylethyl)-7thia-6,12-diazatricyclo[6.4.0.02,6]dodeca-1(12),8,10-trien-10-yl]isoxazol-3-one] are 1000 nM and 19.2 nM.
In the case of `CC(C)C1CS(=O)(=O)c2c1nc(CCC1CCOCC1)c(-c1cc(=O)[nH]o1)c2-c1ccc2c(ccn2Cc2ccc(C#N)c(F)c2)c1` (centres unmarked) [Compound 199, 2-fluoro-4-[[5-[3-isopropyl-1,1-dioxo-6-(3-oxoisoxazol-5-yl)-5-(2-tetrahydropyran-4-ylethyl)-2,3-dihydrothieno[3,2-b]pyridin-7-yl]indol-1-yl]methyl]benzonitrile], the EC50 is 301 nM in test [1] and 3.7 nM in test [2].
Consider `N#Cc1ccc(Cn2ccc3cc(-c4c(-c5cc(=O)[nH]o5)c(CCC5CCOCC5)nc5c4S(=O)(=O)N4CCC[C@@H]54)ccc32)cc1F` [Compound 200, 4-[[5-[(2S)-7,7-dioxo-10-(3-oxoisoxazol-5-yl)-11-(2-tetrahydropyran-4-ylethyl)-7thia-6,12-diazatricyclo[6.4.0.02,6]dodeca-1(8),9,11-trien-9-yl]indol-1-yl]methyl]-2-fluoro-benzonitrile], for which the EC50 was found to be 1310 nM in test [1] and 8.61 nM in test [2].
In the same order, the values of `O=C1c2c(nc(CCC3CCOCC3)c(-c3cc(=O)[nH]o3)c2-c2ccc3c(ccn3Cc3ccc(F)c(F)c3)c2)[C@@H]2CCCN12` [Compound 201, (S)-5-(4-(1-(3,4-difluorobenzyl)-1H-indol-5-yl)-5-oxo-2-(2-(tetrahydro-2H-pyran-4-yl)ethyl)-7,8,9,9a-tetrahydro-5H-pyrido[2,3-a]pyrrolizin-3-yl)isoxazol-3(2H)-one] are 1370 nM and 19.3 nM.
For `CC(c1ccc(F)c(F)c1)n1ccc2cc(-c3c4c(nc(CCC5CCOCC5)c3-c3cc(=O)[nH]o3)[C@@H]3CCCN3C4=O)ccc21` (stereo partly drawn) [Compound 202, 5-((9aS)-4-(1-(1-(3,4-difluorophenyl)ethyl)-1H-indol-5-yl)-5-oxo-2-(2-(tetrahydro-2H-pyran-4-yl)ethyl)-7,8,9,9a-tetrahydro-5H-pyrido[2,3-a]pyrrolizin-3-yl)isoxazol-3(2H)-one] the same measures were 1750 nM and 66.2 nM.
For `N#Cc1ccc(Cn2c(=O)oc3cc(-c4c5c(nc(CCC6CCOCC6)c4-c4cc(=O)[nH]o4)[C@@H]4CCCN4C5=O)ccc32)cc1F` [Compound 203, 4-[[6-[(9aS)-5-oxo-3-(3-oxoisoxazol-5-yl)-2-(2-tetrahydropyran-4-ylethyl)-1,4,7,8,9,9a-hexahydropyrido[2,3-a]pyrrolizin-4-yl]-2-oxo-1,3-benzoxazol-3-yl]methyl]-2-fluoro-benzonitrile] the same measures were 529 nM and 4.69 nM.
Turning to `CC(c1ccc(C#N)c(F)c1)n1ccc2cc(-c3c4c(nc(CCC5CCOCC5)c3-c3cc(=O)[nH]o3)[C@@H]3CCCN3C4=O)ccc21` (stereo partly drawn) [Compound 204, 2-fluoro-4-(1-(5-((S)-5-oxo-3-(3-oxo-2,3-dihydroisoxazol-5-yl)-2-(2-(tetrahydro-2H-pyran-4-yl)ethyl)-7,8,9,9a-tetrahydro-5H-pyrido[2,3-a]pyrrolizin-4-yl)-1H-indol-1-yl)ethyl)benzonitrile], the results for the EC50 in test [1] and in test [2] were 266 nM and 5.06 nM, respectively.
